Measurements: ChEMBL document CHEMBL1208702, “Use of 2-[(18)F]fluoroethylazide for the Staudinger ligation - Preparation and characterisation of GABA(A) receptor binding 4-quinolones” (Bioorg Med Chem Lett, 2010)

Key:
[1] = Drug uptake in low GABAA expression areas of Wistar rat brain prefrontal cortex at 0.1 MBq/ml after 60 mins by autoradiographic analysis; assay type: ADME, tissue-based; conditions: in vivo, 1 h
Brain [2] = experiment: Biodistribution in iv dosed Sprague-Dawley rats brain after 30 mins by gamma counter; assay type: ADME, organism-based; conditions: rat, in vivo, 0.5 h
Brain [3] = experiment: Biodistribution in iv dosed Sprague-Dawley rats brain after 0.5 min by gamma counter; assay type: ADME, organism-based; conditions: rat, in vivo
Heart [4] = experiment: Biodistribution in iv dosed Sprague-Dawley rats heart after 60 mins by gamma counter; assay type: ADME, organism-based; conditions: rat, in vivo, 1 h
[5] = Biodistribution in iv dosed Sprague-Dawley rats fat after 60 mins by gamma counter; assay type: ADME, organism-based, Adipose tissue; conditions: rat, in vivo, 1 h
[6] = Biodistribution in iv dosed Sprague-Dawley rats large intestine after 10 mins by gamma counter; assay type: ADME, organism-based; conditions: rat, in vivo
Kidney = experiment: Biodistribution in iv dosed Sprague-Dawley rats kidneys after 60 mins by gamma counter; assay type: ADME, organism-based; conditions: rat, in vivo, 1 h
[7] = Biodistribution in iv dosed Sprague-Dawley rats large intestine after 30 mins by gamma counter; assay type: ADME, organism-based; conditions: rat, in vivo, 0.5 h
Muscle tissue [8] = experiment: Biodistribution in iv dosed Sprague-Dawley rats muscle after 10 mins by gamma counter; assay type: ADME, organism-based; conditions: rat, in vivo
[9] = Biodistribution in iv dosed Sprague-Dawley rats fat after 0.5 min by gamma counter; assay type: ADME, organism-based, Adipose tissue; conditions: rat, in vivo
Muscle tissue [10] = experiment: Biodistribution in iv dosed Sprague-Dawley rats muscle after 2 mins by gamma counter; assay type: ADME, organism-based; conditions: rat, in vivo
[11] = Biodistribution in iv dosed Sprague-Dawley rats bladder and urine after 30 mins by gamma counter; assay type: ADME, organism-based; conditions: rat, in vivo, 0.5 h
Lung [12] = experiment: Biodistribution in iv dosed Sprague-Dawley rats lung after 60 mins by gamma counter; assay type: ADME, organism-based; conditions: rat, in vivo, 1 h
Bone [13] = experiment: Biodistribution in iv dosed Sprague-Dawley rats bone after 10 mins by gamma counter; assay type: ADME, organism-based, Bone element; conditions: rat, in vivo
Muscle tissue [14] = experiment: Biodistribution in iv dosed Sprague-Dawley rats muscle after 30 mins by gamma counter; assay type: ADME, organism-based; conditions: rat, in vivo, 0.5 h
[15] = Biodistribution in iv dosed Sprague-Dawley rats stomach after 10 mins by gamma counter; assay type: ADME, organism-based; conditions: rat, in vivo
Blood [16] = experiment: Biodistribution in iv dosed Sprague-Dawley rats blood after 2 mins by gamma counter; assay type: ADME, organism-based; conditions: rat, in vivo
Liver [17] = experiment: Biodistribution in iv dosed Sprague-Dawley rats liver after 10 mins by gamma counter; assay type: ADME, organism-based; conditions: rat, in vivo
Bone [18] = experiment: Biodistribution in iv dosed Sprague-Dawley rats bone after 60 mins by gamma counter; assay type: ADME, organism-based, Bone element; conditions: rat, in vivo, 1 h
[19] = Biodistribution in iv dosed Sprague-Dawley rats bladder and urine after 60 mins by gamma counter; assay type: ADME, organism-based; conditions: rat, in vivo, 1 h
[20] = Biodistribution in iv dosed Sprague-Dawley rats bladder and urine after 10 mins by gamma counter; assay type: ADME, organism-based; conditions: rat, in vivo
[21] = Biodistribution in iv dosed Sprague-Dawley rats large intestine after 2 mins by gamma counter; assay type: ADME, organism-based; conditions: rat, in vivo
[22] = Drug uptake in high GABAA expression areas of Wistar rat brain thalamus/striatum cortex at 0.1 MBq/ml after 60 mins by autoradiographic analysis; assay type: ADME, tissue-based; conditions: in vivo, 1 h
[23] = Biodistribution in iv dosed Sprague-Dawley rats fat after 10 mins by gamma counter; assay type: ADME, organism-based, Adipose tissue; conditions: rat, in vivo
Spleen = experiment: Biodistribution in iv dosed Sprague-Dawley rats spleen after 30 mins by gamma counter; assay type: ADME, organism-based; conditions: rat, in vivo, 0.5 h
[24] = Biodistribution in iv dosed Sprague-Dawley rats small intestine after 60 mins by gamma counter; assay type: ADME, organism-based; conditions: rat, in vivo, 1 h
[25] = Drug uptake in Wistar rat brain thalamus/striatum cortex at 0.1 MBq/ml after 60 mins by autoradiographic analysis; assay type: ADME, tissue-based; conditions: in vivo, 1 h
Blood [26] = experiment: Biodistribution in iv dosed Sprague-Dawley rats blood after 60 mins by gamma counter; assay type: ADME, organism-based; conditions: rat, in vivo, 1 h
Brain [27] = experiment: Biodistribution in iv dosed Sprague-Dawley rats brain after 60 mins by gamma counter; assay type: ADME, organism-based; conditions: rat, in vivo, 1 h
Heart [28] = experiment: Biodistribution in iv dosed Sprague-Dawley rats heart after 30 mins by gamma counter; assay type: ADME, organism-based; conditions: rat, in vivo, 0.5 h
[29] = Biodistribution in iv dosed Sprague-Dawley rats small intestine after 30 mins by gamma counter; assay type: ADME, organism-based; conditions: rat, in vivo, 0.5 h
Bone [30] = experiment: Biodistribution in iv dosed Sprague-Dawley rats bone after 2 mins by gamma counter; assay type: ADME, organism-based, Bone element; conditions: rat, in vivo
Brain [31] = experiment: Biodistribution in iv dosed Sprague-Dawley rats brain after 10 mins by gamma counter; assay type: ADME, organism-based; conditions: rat, in vivo
Lung [32] = experiment: Biodistribution in iv dosed Sprague-Dawley rats lung after 30 mins by gamma counter; assay type: ADME, organism-based; conditions: rat, in vivo, 0.5 h
[33] = Biodistribution in iv dosed Sprague-Dawley rats bladder and urine after 2 mins by gamma counter; assay type: ADME, organism-based; conditions: rat, in vivo
Liver [34] = experiment: Biodistribution in iv dosed Sprague-Dawley rats liver after 60 mins by gamma counter; assay type: ADME, organism-based; conditions: rat, in vivo, 1 h
[35] = Biodistribution in iv dosed Sprague-Dawley rats small intestine after 2 mins by gamma counter; assay type: ADME, organism-based; conditions: rat, in vivo
Liver [36] = experiment: Biodistribution in iv dosed Sprague-Dawley rats liver after 2 mins by gamma counter; assay type: ADME, organism-based; conditions: rat, in vivo

Drug uptake [1]: 76% | Drug uptake (Brain [2]): 0.1 %ID | Drug uptake (Brain [3]): 0.1 %ID | Drug uptake (Heart [4]): 0.1 %ID | Drug uptake [5]: 0.3 %ID | Drug uptake [6]: 1.7 %ID | Drug uptake (Kidney): 0.5 %ID | Drug uptake [7]: 1.7 %ID | Drug uptake (Muscle tissue [8]): 27.2 %ID | Drug uptake [9]: 0.6 %ID | Drug uptake (Muscle tissue [10]): 47.3 %ID | Drug uptake [11]: 4.2 %ID | Drug uptake (Lung [12]): 0.1 %ID | Drug uptake (Bone [13]): 1.7 %ID | Drug uptake (Muscle tissue [14]): 16.5 %ID | Drug uptake [15]: 1 %ID | Drug uptake (Blood [16]): 4.2 %ID | Drug uptake (Liver [17]): 33.7 %ID | Drug uptake (Bone [18]): 1.4 %ID | Drug uptake [19]: 7.3 %ID | Drug uptake [20]: 0.8 %ID | Drug uptake [21]: 1.3 %ID | Drug uptake [22]: 76% | Drug uptake [23]: 1.8 %ID | Drug uptake (Spleen): 0.1 %ID | Drug uptake [24]: 74.5 %ID | Drug uptake [25]: 60% | Drug uptake (Blood [26]): 0.7 %ID | Drug uptake (Brain [27]): 0 %ID | Drug uptake (Heart [28]): 0.2 %ID | Drug uptake [29]: 50.3 %ID | Drug uptake (Bone [30]): 3 %ID | Drug uptake (Brain [31]): 0.1 %ID | Drug uptake (Lung [32]): 0.4 %ID | Drug uptake [33]: 0 %ID | Drug uptake (Liver [34]): 4.8 %ID | Drug uptake [35]: 7 %ID | Drug uptake (Liver [36]): 28.5 %ID
Compound: O=C(NCC[18F])c1c[nH]c2ccc(Cc3ccccc3)cc2c1=O
